Assays:
[1] = DRUGMATRIX: ATPase, Na+/K+ enzyme inhibition (substrate: ATP); type: tissue-based, Sus scrofa, Heart; conditions: Not Active = under 50% inhibition at 10 µM
[2] = biological target: T1, Vasoactive intestinal polypeptide receptor 1 (Homo sapiens, UniProt P32241); type: cell membranes, Membrane; conditions: ht-29; further: in other assays of this panel Not Active means under 50% inhibition at 10 µM
T1 sequence (P32241 whole entry): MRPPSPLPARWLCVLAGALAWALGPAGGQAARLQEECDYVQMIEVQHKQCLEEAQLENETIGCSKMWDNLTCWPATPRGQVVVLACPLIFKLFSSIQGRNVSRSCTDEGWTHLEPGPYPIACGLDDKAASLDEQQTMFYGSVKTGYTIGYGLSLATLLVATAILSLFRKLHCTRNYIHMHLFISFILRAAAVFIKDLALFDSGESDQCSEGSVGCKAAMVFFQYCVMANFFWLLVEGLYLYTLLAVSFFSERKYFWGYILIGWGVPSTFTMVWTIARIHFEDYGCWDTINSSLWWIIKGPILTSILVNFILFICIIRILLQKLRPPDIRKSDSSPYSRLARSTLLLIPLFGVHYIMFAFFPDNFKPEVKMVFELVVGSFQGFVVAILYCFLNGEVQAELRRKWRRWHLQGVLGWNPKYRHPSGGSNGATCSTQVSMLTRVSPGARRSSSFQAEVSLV

[3] = biological target: Epidermal growth factor receptor (Homo sapiens, UniProt P00533); experiment: DRUGMATRIX: Protein Tyrosine Kinase, EGF Receptor enzyme inhibition (substrate: Poly(Glu:Tyr)); type: cell-based, Insect cells; conditions: insect cells; Not Active = under 50% inhibition at 10 µM
Epidermal growth factor receptor, sequence (P00533 whole entry): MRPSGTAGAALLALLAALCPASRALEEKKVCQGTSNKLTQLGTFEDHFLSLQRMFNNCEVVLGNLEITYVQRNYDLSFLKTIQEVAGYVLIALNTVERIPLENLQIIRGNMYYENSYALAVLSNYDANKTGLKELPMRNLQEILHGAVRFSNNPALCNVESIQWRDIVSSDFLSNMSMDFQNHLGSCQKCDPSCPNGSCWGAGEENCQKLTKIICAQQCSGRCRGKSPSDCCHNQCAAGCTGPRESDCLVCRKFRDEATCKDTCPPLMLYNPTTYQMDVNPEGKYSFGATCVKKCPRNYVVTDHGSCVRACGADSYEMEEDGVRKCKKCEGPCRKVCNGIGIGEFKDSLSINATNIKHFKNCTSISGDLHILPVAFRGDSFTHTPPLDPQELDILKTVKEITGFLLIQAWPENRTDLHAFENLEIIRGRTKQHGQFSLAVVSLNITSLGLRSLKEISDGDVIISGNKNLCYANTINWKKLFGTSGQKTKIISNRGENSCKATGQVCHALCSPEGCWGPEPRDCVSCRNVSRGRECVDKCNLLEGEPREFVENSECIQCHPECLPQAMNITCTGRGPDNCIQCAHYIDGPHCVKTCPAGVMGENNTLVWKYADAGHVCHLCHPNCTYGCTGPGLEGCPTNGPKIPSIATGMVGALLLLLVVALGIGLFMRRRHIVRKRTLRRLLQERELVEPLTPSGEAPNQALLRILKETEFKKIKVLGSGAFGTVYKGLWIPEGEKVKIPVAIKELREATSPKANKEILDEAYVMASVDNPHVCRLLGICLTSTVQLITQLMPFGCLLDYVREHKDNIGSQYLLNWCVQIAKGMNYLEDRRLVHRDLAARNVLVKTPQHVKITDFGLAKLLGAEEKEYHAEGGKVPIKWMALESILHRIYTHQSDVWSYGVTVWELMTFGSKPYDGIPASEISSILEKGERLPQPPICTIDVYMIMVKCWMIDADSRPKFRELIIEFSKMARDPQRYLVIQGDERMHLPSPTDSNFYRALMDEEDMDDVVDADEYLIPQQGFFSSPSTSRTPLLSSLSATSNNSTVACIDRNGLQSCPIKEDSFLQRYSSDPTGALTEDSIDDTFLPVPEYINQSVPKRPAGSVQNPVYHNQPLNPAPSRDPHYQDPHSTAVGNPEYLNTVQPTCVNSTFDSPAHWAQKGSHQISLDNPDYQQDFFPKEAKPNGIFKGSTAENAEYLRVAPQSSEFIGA

[4] = biological target: Voltage-gated inwardly rectifying potassium channel KCNH2 (Homo sapiens, UniProt Q12809); conditions: hek293; further: in other assays of this panel Not Active means under 50% inhibition at 10 µM
Voltage-gated inwardly rectifying potassium channel KCNH2, sequence (Q12809 whole entry): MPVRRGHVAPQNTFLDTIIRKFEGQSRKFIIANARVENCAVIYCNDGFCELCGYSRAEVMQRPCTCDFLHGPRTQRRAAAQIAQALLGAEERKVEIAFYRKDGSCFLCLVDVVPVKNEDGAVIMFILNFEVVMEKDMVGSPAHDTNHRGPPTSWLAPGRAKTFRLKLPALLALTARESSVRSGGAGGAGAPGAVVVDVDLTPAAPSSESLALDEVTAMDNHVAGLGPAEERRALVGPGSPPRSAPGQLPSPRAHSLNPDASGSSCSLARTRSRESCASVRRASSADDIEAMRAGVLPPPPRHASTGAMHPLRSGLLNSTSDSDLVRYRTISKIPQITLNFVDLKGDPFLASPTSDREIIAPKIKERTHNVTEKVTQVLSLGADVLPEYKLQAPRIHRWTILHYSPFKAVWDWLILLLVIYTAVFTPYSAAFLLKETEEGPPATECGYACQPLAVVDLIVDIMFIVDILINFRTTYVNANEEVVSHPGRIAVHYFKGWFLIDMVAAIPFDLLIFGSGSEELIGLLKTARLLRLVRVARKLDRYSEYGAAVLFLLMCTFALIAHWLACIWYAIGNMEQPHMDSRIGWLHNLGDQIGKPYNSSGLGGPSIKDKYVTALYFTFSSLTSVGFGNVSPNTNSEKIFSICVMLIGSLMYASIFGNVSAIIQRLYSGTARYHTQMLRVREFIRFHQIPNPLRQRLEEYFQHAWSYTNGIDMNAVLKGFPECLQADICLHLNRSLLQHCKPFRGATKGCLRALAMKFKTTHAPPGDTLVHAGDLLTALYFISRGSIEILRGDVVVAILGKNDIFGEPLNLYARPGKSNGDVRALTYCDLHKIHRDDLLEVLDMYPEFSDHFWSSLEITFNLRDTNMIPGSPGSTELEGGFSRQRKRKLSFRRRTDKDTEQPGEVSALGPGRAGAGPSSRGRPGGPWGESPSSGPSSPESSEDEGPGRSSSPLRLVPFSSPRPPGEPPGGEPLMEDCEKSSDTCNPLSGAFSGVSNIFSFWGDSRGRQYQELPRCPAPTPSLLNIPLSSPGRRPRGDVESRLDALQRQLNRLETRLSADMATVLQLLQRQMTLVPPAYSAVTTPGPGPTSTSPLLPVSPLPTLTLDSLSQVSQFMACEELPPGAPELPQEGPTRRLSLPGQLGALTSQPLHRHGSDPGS

[5] = biological target: Beta-3 adrenergic receptor (Homo sapiens, UniProt P13945); experiment: DRUGMATRIX: Adrenergic beta3 radioligand binding (ligand: [125I] Cyanopindolol); type: cell membranes, Membrane; conditions: hek293; Not Active = under 50% inhibition at 10 µM
Beta-3 adrenergic receptor, sequence (P13945 whole entry): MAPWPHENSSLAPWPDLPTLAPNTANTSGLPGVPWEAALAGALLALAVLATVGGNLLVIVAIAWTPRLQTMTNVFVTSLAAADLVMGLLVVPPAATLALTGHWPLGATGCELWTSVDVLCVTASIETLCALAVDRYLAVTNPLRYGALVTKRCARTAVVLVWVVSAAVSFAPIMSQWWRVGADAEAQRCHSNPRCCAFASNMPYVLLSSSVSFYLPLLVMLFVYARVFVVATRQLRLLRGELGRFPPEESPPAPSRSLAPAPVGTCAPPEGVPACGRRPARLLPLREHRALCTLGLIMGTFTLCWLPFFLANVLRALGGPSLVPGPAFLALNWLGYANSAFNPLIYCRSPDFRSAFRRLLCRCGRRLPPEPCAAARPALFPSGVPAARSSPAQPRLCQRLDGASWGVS

[6] = DRUGMATRIX: Potassium Channel [KATP] radioligand binding (ligand: [3H] Glyburide); type: cell membranes, Membrane; conditions: hit-t15; Not Active = under 50% inhibition at 10 µM
[7] = DRUGMATRIX: Imidazoline I2, Central radioligand binding (ligand: [3H] Idazoxan); type: cell membranes, Rattus norvegicus, Wistar, Cerebral cortex, Membrane; conditions: Not Active = under 50% inhibition at 10 µM

CCOC(=O)C(C)(C)Oc1ccc(Cl)cc1 [CLOFIBRATE]
Not Active: IC50 [1] | Ki [1] | IC50 [2] | IC50 [3] | IC50 [4] | Ki [4] | IC50 [5] | IC50 [6] | Ki [6] | IC50 [7] | Ki [7]

C#C[C@]1(OC(C)=O)CC[C@H]2[C@@H]3CCC4=CC(=O)CC[C@@H]4[C@H]3CC[C@@]21C [NORETHINDRONE ACETATE]
Not Active: IC50 [1] | Ki [1] | IC50 [2] | IC50 [3] | IC50 [4] | Ki [4] | IC50 [5] | IC50 [6] | Ki [6] | IC50 [7] | Ki [7]

CC(=O)Nc1c(I)c(NC(C)=O)c(I)c(C(=O)O)c1I [DIATRIZOIC ACID]
Not Active: IC50 [1] | Ki [1] | IC50 [2] | IC50 [3] | IC50 [4] | Ki [4] | IC50 [5] | IC50 [6] | Ki [6] | IC50 [7] | Ki [7]

C[C@@H]1C[C@@H]([C@H](O)CC2CC(=O)NC(=O)C2)C(=O)[C@@H](C)C1 [CYCLOHEXIMIDE]
Not Active: IC50 [1] | Ki [1] | IC50 [2] | IC50 [3] | IC50 [4] | Ki [4] | IC50 [5] | IC50 [6] | Ki [6] | IC50 [7] | Ki [7]

Cc1cc(=O)n(-c2ccccc2)n1C [ANTIPYRINE]
Not Active: IC50 [1] | Ki [1] | IC50 [2] | IC50 [3] | IC50 [4] | Ki [4] | IC50 [5] | IC50 [6] | Ki [6] | IC50 [7] | Ki [7]

CC1(C)O[C@@H]2C[C@H]3[C@@H]4C[C@H](F)C5=CC(=O)CC[C@]5(C)[C@H]4[C@@H](O)C[C@]3(C)[C@]2(C(=O)CO)O1 [FLURANDRENOLIDE]
Not Active: IC50 [1] | Ki [1] | IC50 [2] | IC50 [3] | IC50 [4] | Ki [4] | IC50 [5] | IC50 [6] | Ki [6] | IC50 [7] | Ki [7]

CC(=O)OCC(=O)[C@@]1(O)CC[C@H]2[C@@H]3CCC4=CC(=O)CC[C@]4(C)[C@H]3C(=O)C[C@@]21C [CORTISONE ACETATE]
Not Active: IC50 [1] | Ki [1] | IC50 [2] | IC50 [3] | IC50 [4] | Ki [4] | IC50 [5] | IC50 [6] | Ki [6] | IC50 [7] | Ki [7]

CCN1CC(CCN2CCOCC2)C(c2ccccc2)(c2ccccc2)C1=O (stereo not given) [DOXAPRAM]
Not Active: IC50 [1] | Ki [1] | IC50 [2] | IC50 [3] | IC50 [4] | Ki [4] | IC50 [5] | IC50 [6] | Ki [6] | IC50 [7] | Ki [7]

NC(=O)c1cnccn1 [PYRAZINAMIDE]
Not Active: IC50 [1] | Ki [1] | IC50 [2] | IC50 [3] | IC50 [4] | Ki [4] | IC50 [5] | IC50 [6] | Ki [6] | IC50 [7] | Ki [7]

O=C1CC[C@H](N2C(=O)c3ccccc3C2=O)C(=O)N1
Not Active: IC50 [1] | Ki [1] | IC50 [2] | IC50 [3] | IC50 [4] | Ki [4] | IC50 [5] | IC50 [6] | Ki [6] | IC50 [7] | Ki [7]

ClC(Cl)Cl [CHLOROFORM]
Not Active: IC50 [1] | Ki [1] | IC50 [2] | IC50 [3] | IC50 [4] | Ki [4] | IC50 [5] | IC50 [6] | Ki [6] | IC50 [7] | Ki [7]

CCc1c2c(nc3ccc(OC(=O)N4CCC(N5CCCCC5)CC4)cc13)-c1cc3c(c(=O)n1C2)COC(=O)[C@]3(O)CC [IRINOTECAN]
Not Active: IC50 [1] | Ki [1] | IC50 [2] | IC50 [3] | IC50 [4] | Ki [4] | IC50 [5] | IC50 [6] | Ki [6] | IC50 [7] | Ki [7]

CCCN(CCC)C(=O)C(CCC(=O)O)NC(=O)c1ccccc1 (stereo not given) [PROGLUMIDE]
Not Active: IC50 [1] | Ki [1] | IC50 [2] | IC50 [3] | IC50 [4] | Ki [4] | IC50 [5] | IC50 [6] | Ki [6] | IC50 [7] | Ki [7]

CCCC(CCC)C(=O)O [VALPROIC ACID]
Not Active: IC50 [1] | Ki [1] | IC50 [2] | IC50 [3] | IC50 [4] | Ki [4] | IC50 [5] | IC50 [6] | Ki [6] | IC50 [7] | Ki [7]

Cc1ccccc1C(=O)N1CCC(Cc2ccccc2)CC1
Not Active: IC50 [1] | Ki [1] | IC50 [2] | IC50 [3] | IC50 [4] | Ki [4] | IC50 [5] | IC50 [6] | Ki [6] | IC50 [7] | Ki [7]

CCCC(=O)Nc1ccc(OCC(O)CNC(C)C)c(C(C)=O)c1 (stereo not given) [ACEBUTOLOL]
Not Active: IC50 [1] | Ki [1] | IC50 [2] | IC50 [3] | IC50 [4] | Ki [4] | IC50 [5] | IC50 [6] | Ki [6] | IC50 [7] | Ki [7]

OC(CCN1CCCCC1)(c1ccccc1)C1CCCCC1 (stereo not given) [TRIHEXYPHENIDYL]
Not Active: IC50 [1] | Ki [1] | IC50 [2] | IC50 [3] | IC50 [4] | Ki [4] | IC50 [5] | IC50 [6] | Ki [6] | IC50 [7] | Ki [7]

Cc1ccc(S(=O)(=O)NC(=O)NN2CC3CCCC3C2)cc1 (stereo not given) [GLICLAZIDE]
Not Active: IC50 [1] | Ki [1] | IC50 [2] | IC50 [3] | IC50 [4] | Ki [4] | IC50 [5] | IC50 [6] | Ki [6] | IC50 [7] | Ki [7]

N=C(N)NC(=O)c1nc(Cl)c(N)nc1N [AMILORIDE]
Not Active: IC50 [1] | Ki [1] | IC50 [2] | IC50 [3] | IC50 [4] | Ki [4] | IC50 [5] | IC50 [6] | Ki [6] | IC50 [7] | Ki [7]

CC(C)(Oc1ccc(C2CCCc3ccccc32)cc1)C(=O)O (stereo not given) [NAFENOPIN]
Not Active: IC50 [1] | Ki [1] | IC50 [2] | IC50 [3] | IC50 [4] | Ki [4] | IC50 [5] | IC50 [6] | Ki [6] | IC50 [7] | Ki [7]

Reference: ChEMBL document CHEMBL1909046, “DrugMatrix in vitro pharmacology data”
